Results from patent publication US20250019644A1, “Quantitatively Mapping Amino Acid Properties (QMAP) Cell Culture Media” (UNIVERSITY OF IOWA RESEARCH FOUNDATION, priority 2023, published 2025).

Legend:
HCT116 cells = assay: Screen 2: metabolic profiling with unlabeled amino acids (LC-MS); type: cell-based, human; conditions: 0.5, 1, 2 mM, dose-dependent, 6 hours
Description: Media was changed to QMAP plus individual amino acid treatments at the start of the experiment. 200 mM amino acid stocks were used to make the QMAP+individual amino acid treatment medias that were placed in the tissue culture incubator for 30-45 minutes prior to the start of the dosing for equilibration of media bicarbonate with incubator CO2. For metabolomic profiling experiments, cells were treated with additional amino acid doses of 0.5, 1 and 2 mM, and 1 mM was used for stable isotope tracing experiments. To minimize systematic error, each amino acid dose was added as a batch (20 amino acids+vehicle control) such that each well of each plate contained a different amino acid. The process was repeated for the other two concentrations of amino acids on the next plates to make set. This was repeated four more times to achieve the sample size of 5 replicates for each of the 3 doses of amino acids. Each plate was then incubated for 6 hours in the tissue culture incubator before being rapidly washed twice with sterile water and snap frozen on liquid nitrogen before being stored at −80° C. The next day, the plates were lyophilized for 90 minutes and then stored at −80° C.
Extraction buffer was prepared by adding 2:2:1 methanol: acetonitrile: water. For profiling, the following internal standards (Cambridge Isotope Laboratories) were added at 1 μg/mL each: L-Valine-D8, L-Aspartate (^13C4, D3, ^15N) and Succinate (13C4D4). 6-well plates were removed from storage at −80° C. and 1 ml of ice-cold extraction buffer was added. Plates were incubated at −20° C. for 5 minutes, scraped, transferred to microcentrifuge tubes and frozen in liquid nitrogen. Tubes were then placed into a sonicating water bath for 10 minutes and rotated at −20° C. for 1 hour before being centrifuged at 4° C. for 10 minutes at 21,000×g. […] of extract was dried down completely using a speed-vacuum (˜90 min), dissolved in […] of acetonitrile: water (1:1), vortexed for 10 min, and stored overnight at −20° C. to allow protein precipitation. Samples were then centrifuged at 4° C. for 10 minutes at 21,000×g and the supernatants were transferred into autosampler vials for analysis. For the QCs, […] of each extract was pooled, at the step prior to drying down, mixed and dried in […] amounts alongside the samples. Once dried, QCs were processed with the samples but recombined prior to being aliquoted into autosampler vials. All samples were then frozen at −80° C., and only one set of samples, which included a QC aliquot, was thawed, vortexed and placed into the instrument.
The sheath gas flow was set to 40 units, the auxiliary gas flow was set to 15 units and the sweep gas flow was set to 1 unit. […] For tracing, […] of sample was injected twice in either positive or negative mode to maximize detection efficiency and minimize metabolite crowding using the Sim-mode.
LC-MS data was processed using the Thermo Scientific TraceFinder 5.1 software.
The three cell lines were then treated with 0.5, 1, and 2 mM of individual, unlabeled amino acids, and metabolic profiling was performed to determine how individual amino acids quantitatively altered metabolite abundance (Screen 2).

3T3-L1 = assay: CellTiter-Glo Luminescent Cell Viability Assay; type: cell-based, mouse; conditions: 2 mM, 24 hours, DMEM
Description: (§1) HT29, 293T, U2OS, and 3T3-LI cells were plated on an opaque 96-well plate in 1:1 DMEM. […] At the appropriate time point, 100 μl of CellTiter-Glo reagent (Promega #G7570) was added to each well. The plate was gently mixed for 2 minutes to induce lysis, incubated at room-temperature for 10 minutes, and then luminescence was measured.
(§2) To test whether tryptophan inhibition of growth applied to other cell lines and persisted in conventional cell culture media, two human cancer cell lines (HT29, U2OS), a transformed human embryonic kidney cell line (293T), and a mouse, fibroblast-like cell line (3T3-L1) were grown in DMEM for 24 hours and then treated with 2 mM tryptophan or vehicle. After 24 hours, cells were assayed by CellTiter-Glo, which indicates cell viability by measuring ATP production.

U2OS = assay: CellTiter-Glo Luminescent Cell Viability Assay; type: cell-based, human; conditions: 2 mM, 24 hours, DMEM
Description: as §1
To test whether tryptophan inhibition of growth applied to other cell lines and persisted in conventional cell culture media, two human cancer cell lines (HT29, U2OS), a transformed human embryonic kidney cell line (293T), and a mouse, fibroblast-like cell line (3T3-L1) were grown in DMEM for 24 hours and then treated with 2 mM tryptophan or vehicle. […]

293T = assay: CellTiter-Glo Luminescent Cell Viability Assay; type: cell-based, human; conditions: 2 mM, 24 hours, DMEM
Description: as §1, §2

HT29 = assay: CellTiter-Glo Luminescent Cell Viability Assay; type: cell-based, human; conditions: 2 mM, 24 hours, DMEM
Description: as §1, §2

HCT15 cells = assay: Crystal Violet Cell Cytotoxicity Assay; type: cell-based; conditions: Homo sapiens, HCT-15; 2 mM, 48 hours, QMAP, compared to QMAP only; read-out: decrease in cell viability
Description: HCT15 cells were plated in 1:1 DMEM: QMAP media on a clear 96-well plate. After 18 hours, cells were treated with 200 μl of QMAP (CTRL) or QMAP plus an amino acid (2 mM). Cells were then grown for 48 hours, followed by a live/dead assay using the Crystal Violet Cell Cytotoxicity Assay Kit (BioVision, #K329) according to the manufacturer's directions. Briefly, cells were washed with 200 μl of 1× washing solution and incubated in 50 μl of crystal violet staining solution for 20 minutes. Cells were washed four times with 200 μl of 1× washing solution to remove dead cells. Cells were then incubated in 100 μl of solubilization solution for 20 minutes, and absorbance was measured at 595 nm.
An amino acid screen of all 20 essential and non-essential amino acids was performed to assess the differential effects of amino acids on cancer cell proliferation. Because commercially available cell culture media such as DMEM or RPMI contain variable concentrations of amino acids, a chemically defined, custom minimal media was designed containing all amino acids present at 0.3 mM, referred to as QMAP. HCT15 cells, a colon cancer cell line, were plated in 50:50 DMEM: QMAP and left to attach overnight. […] After 48 hours, cell proliferation was measured by crystal violet dye, which binds to ribose-like molecules such as DNA and assumes dead cells become unattached and are washed away.

## N[C@@H](Cc1c[nH]c2ccccc12)C(=O)O [tryptophan, L-tryptophan]
HCT116 cells
  distal TCA cycle metabolite levels (alpha-ketoglutarate to malate): decreased
  glutamine levels: increased
3T3-L1
  cell viability compared to vehicle: significant decreases
U2OS
  cell viability compared to vehicle: significant decreases
293T
  cell viability compared to vehicle: significant decreases
HT29
  cell viability compared to vehicle: significant decreases
HCT15 cells
  cytotoxicity at 2000 µM: ~50%
